Key:
[1] = test system: C. parvum Iowa strain; experiment: Cryptosporidiosis NOD SCID gamma mouse model, fecal oocyst shedding by quantitative PCR; assay type: in vivo, Cryptosporidium parvum; conditions: NOD SCID gamma mice, average reduction in oocyst shedding compared to untreated vehicle
From the text: The in vivo measurement of the potential efficacy of compounds of formula (I) in a cryptosporidium mouse model has been carried out following the method described in Antimicrob. Agents Ch., 2018, 62, 4, e01505-17, and which is summarised below. The cryptosporidiosis NOD SCID gamma mouse model was run as follows: Male NOD SCID gamma mice (NOD.Cg-Prkdc^scid II2rg^tm1Wjt/SzJ, Jackson Labs) were infected approximately 2 weeks post weaning with 10^5 C. parvum Iowa strain oocysts by oral gavage. Four mice were used per experimental group. This establishes a chronic, asymptomatic infection of the small intestine, cecum, and biliary tree. Fecal parasite shedding is monitored by quantitative PCR to amplify C. parvum DNA. One week after infection (which is the timing with which shedding becomes uniformly detected), compounds are dosed by oral gavage. Treatment continued for seven days total. The number of oocysts per milligram of stool was measured for each mouse on day 8 (1 day after completion of the last dose) and day 15 […] (7 days after the completion of the last dose). Average oocyst concentrations were calculated for each group of mice. Log reduction is the average reduction in oocyst shedding compared to untreated vehicle. These experiments were run in accordance with the method of C. D. Huston et al, Antimicrob. Agents Ch., 2018, 62, 4, e01505-17.

[2] = target: Cryptosporidium parvum lysyl t-RNA synthetase (Cp KRS) (Cryptosporidium parvum, UniProt Q5CR27); experiment: In vitro inhibition of Cryptosporidium lysyl tRNA synthetase (KRS), Biomol green phosphate detection; assay type: biochemical; conditions: 300 nM CpKRS, 500 μM ATP, 1.2 mM L-Lysine, 8 h room temperature; read-out: C. parvum KRS pIC50 (converted)
From the text: The protein expression and purification method for recombinant CpKRS was described in Baragana et aL, PNAS, 2019, 116 (4), 7015-7020 and will be summarised below.
The C. parvum KRS had 45 residues removed at the N-terminus. All amplicons were cloned into the pAVA0421 expression vector using the ligation independent cloning (LIC) method. Recombinant plasmids were transformed into Rosetta BL21(DE3) competent cells and plated on LB agar plates with ampicillin, carbenicillin, and chloramphenicol selection. Clones were expressed using previously reported autoinduction methods and scaled to 2-litre cultures in a shake flasks. Cell pellets were harvested and lysed with 100 mM HEPES/150 mM NaCl/5% Glycerol/20 mM imidazole/0.5 mM TCEP pH 7.5/DNase/Complete inhibitor tablets) using a Cell Disrupter (Constant Systems) at 30 KPSI and centrifuged at 40,000 g for 20 min remove cell debris. The supernatant was loaded onto a 5 ml HiTrap Ni HP column that had been equilibrated with Buffer A (100 mM HEPES/150 mM NaCl/5% Glycerol/20 mM imidazole/0.5 mM TCEP pH 7.5) at 5 ml/min using an AKTA Pure system. Once loaded the column was washed with 10 column volumes of buffer A. A 5% step of Buffer B (100 mM HEPES/150 mM NaCl/5% Glycerol/500 mM imidazole/0.5 mM TCEP pH 7.5) was then used to wash off His-rich contaminating proteins. A linear gradient of 5-50% B was used to elute the protein. Approximately 287 mg of protein was present in the fractions containing the CpKRS protein. The sample was then concentrated to approximately 30 ml, passed through a 0.2 μm filter, before loading onto a XK26/60 Superdex 200 column using an AKTA Pure system at 4° C. at 2 ml/min 10 ml at a time. The eluted protein was pooled then frozen at −80° C. The concentration of the protein was 1.3 mg/ml. Sometimes the protein was cleaved with PreScission protease overnight, a second Ni column performed in flow through mode to removed uncleaved protein. GST beads were then added to remove the PreScission Protease. The protein was then gel filtered as descripted above.
Assay Method for Measurement of In Vitro Inhibition of Cryptosporidium lysyl tRNA Synthetase (KRS)
Potency of compounds was determined in 10 points dose-response inhibition curves. Compounds were transferred into 384-well clear bottom plates (Greiner Bio-One, 781101) using an Echo 550 acoustic dispenser (Labcyte). Using an automatic liquid dispenser, 50 μL reaction mixes were prepared by adding 25 μL of substrate mix into all wells followed by the addition of 25 μL enzyme mix into compounds and no inhibition control wells (final reaction: 100 mM HEPES, pH 7.4, 20 mM MgCl2, 1 mM DTT, 500 μM ATP, 1.2 mM L-Lysine, 300 nM CpKRS and 0.5 U/mL Pyrophosphatase). Complete inhibition control reactions were performed in the absence of enzyme and the plates were incubated at room temperature for 8 h. Reactions were stopped by the addition of Biomol green (50 μL: Enzo Life Sciences) with the amount of free phosphate detected by measuring absorbance (650 nm) after 20 min further incubation (BMG Pherastar plate reader). Counter screen assays to eliminate direct inhibition of pyrophosphatase were performed using 0.5 U/mL pyrophosphatase and 3 μM pyrophosphate as substrate in the same assay buffer (100 mM HEPES, pH 7.4, 20 mM MgCl2, 1 mM DTT) for 8 hours at room temperature. Biomol green was added and incubated for 20 min before detection as above. Samples were run in duplicate and data was processed and analysed using ActivityBase (IDBS).

[3] = test system: Cryptosporidium parvum; experiment: In vitro inhibition of Cryptosporidium (method of Bessoff et al.); assay type: cell-based; conditions: read-out: C. parvum PEC50 (converted)
From the text: Assay Method for Measurement of In Vitro Inhibition of Cryptosporidium
These experiments were run in accordance with the method of Besssoff et. al. Antimicrob. Agents Chemother. 2013, 57:1804-1814. Results from these experiments are provided in the Experimental Results hereinafter.

[4] = test system: Hep G2 (Human hepatocyte carcinoma); experiment: In vitro inhibition of HepG2 cells (cytotoxicity); assay type: cell-based; conditions: read-out: Hs HepG2 PEC50 (converted)
From the text: Assay Method for Measurement of In Vitro Inhibition of HepG2 Cells (Cytotoxicity)
These experiments were run in accordance with the method of Mersch-Sundermann V et. al. Toxicology 2004, 198:329-340

Chain of Cryptosporidium parvum lysyl t-RNA synthetase (Cp KRS) (Q5CR27 entry or part of it): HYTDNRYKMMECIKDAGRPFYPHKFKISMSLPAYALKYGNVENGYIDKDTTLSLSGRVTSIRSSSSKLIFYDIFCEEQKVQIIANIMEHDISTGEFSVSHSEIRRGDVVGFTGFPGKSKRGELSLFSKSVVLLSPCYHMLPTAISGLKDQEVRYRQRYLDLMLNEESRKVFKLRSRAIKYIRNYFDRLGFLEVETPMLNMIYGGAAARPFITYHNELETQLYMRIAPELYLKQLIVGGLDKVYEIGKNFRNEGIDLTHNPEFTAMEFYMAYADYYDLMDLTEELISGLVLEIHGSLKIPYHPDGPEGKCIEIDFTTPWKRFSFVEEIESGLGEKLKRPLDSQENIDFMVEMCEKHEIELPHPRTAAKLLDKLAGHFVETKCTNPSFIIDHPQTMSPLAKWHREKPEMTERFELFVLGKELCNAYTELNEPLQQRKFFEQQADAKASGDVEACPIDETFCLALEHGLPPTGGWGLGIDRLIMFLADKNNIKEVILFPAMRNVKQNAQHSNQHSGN

Nc1nc2c(c(C(F)(F)F)n1)C(=O)N(CC1CCCC3(CC3)C1)C2 (racemic) [Compound 4, 2-amino-6-(spiro[2.5]octan-5-ylmethyl)-4-(trifluoromethyl)-6,7-dihydro-5H-pyrrolo[3,4-d]pyrimidin-5-one]
Log Reduction (day 8) ([1]; 10 mg/kg P.O. B.I.D. 7 days): 1.3
Log Reduction (day 15) ([1]; 10 mg/kg P.O. B.I.D. 7 days): 1.0
Log Reduction (day 8) ([1]; 50 mg/kg P.O. B.I.D. 7 days): 3.4
Log Reduction (day 15) ([1]; 50 mg/kg P.O. B.I.D. 7 days): 2.5
IC50 [2]: 2510 nM
EC50 [3]: 158 nM
EC50 [4]: 20000 nM

Nc1nc2c(c(C(F)(F)F)n1)C(=O)N(C[C@@H]1CCC[C@H](C(F)(F)F)C1)C2 [Compound 1, 2-amino-4-(trifluoromethyl)-6-(((1R,3S)-3-(trifluoromethyl)cyclohexyl)methyl)-6,7-dihydro-5H-pyrrolo[3,4-d]pyrimidin-5-one]
Log Reduction (day 8) ([1]; 10 mg/kg P.O. B.I.D. 7 days): 3.0
Log Reduction (day 15) ([1]; 10 mg/kg P.O. B.I.D. 7 days): 1.0
Log Reduction (day 8) ([1]; 20 mg/kg P.O. B.I.D. 7 days): 3.1
Log Reduction (day 15) ([1]; 20 mg/kg P.O. B.I.D. 7 days): 0.7
Log Reduction (day 8) ([1]; 30 mg/kg P.O. B.I.D. 7 days): 2.9
Log Reduction (day 15) ([1]; 30 mg/kg P.O. B.I.D. 7 days): 2.2
Log Reduction (day 8) ([1]; 40 mg/kg P.O. B.I.D. 7 days): 2.6
Log Reduction (day 15) ([1]; 40 mg/kg P.O. B.I.D. 7 days): 2.9
Log Reduction (day 8) ([1]; 50 mg/kg P.O. B.I.D. 7 days): 3.4
Log Reduction (day 15) ([1]; 50 mg/kg P.O. B.I.D. 7 days): 3.5
IC50 [2]: 794 nM
EC50 [3]: 31.6 nM
EC50 [4]: 25100 nM

Cc1nc(N)nc2c1C(=O)N(C[C@@H]1CCC[C@H](C(F)(F)F)C1)C2 [Compound 2, 2-amino-4-methyl-6-(((1R,3S)-3-(trifluoromethyl)cyclohexyl)methyl)-6,7-dihydro-5H-pyrrolo[3,4-d]pyrimidin-5-one]
Log Reduction (day 8) ([1]; 10 mg/kg P.O. B.I.D. 7 days): 1.8
Log Reduction (day 15) ([1]; 10 mg/kg P.O. B.I.D. 7 days): 0.8
Log Reduction (day 8) ([1]; 30 mg/kg P.O. B.I.D. 7 days): 2.7
Log Reduction (day 15) ([1]; 30 mg/kg P.O. B.I.D. 7 days): 2.4
IC50 [2]: 794 nM
EC50 [3]: 20 nM
EC50 [4]: 12600 nM

Nc1nc2c(c(C(F)F)n1)C(=O)N(C[C@@H]1CCC[C@H](C(F)(F)F)C1)C2 [Compound 3, 2-amino-4-(difluoromethyl)-6-(((1R,3S)-3-(trifluoromethyl)cyclohexyl)methyl)-6,7-dihydro-5H-pyrrolo[3,4-d]pyrimidin-5-one]
Log Reduction (day 8) ([1]; 10 mg/kg P.O. B.I.D. 7 days): 2.4
Log Reduction (day 15) ([1]; 10 mg/kg P.O. B.I.D. 7 days): 1.0
Log Reduction (day 8) ([1]; 30 mg/kg P.O. B.I.D. 7 days): 2.8
Log Reduction (day 15) ([1]; 30 mg/kg P.O. B.I.D. 7 days): 1.6
IC50 [2]: 1000 nM
EC50 [3]: 25.1 nM
EC50 [4]: 25100 nM
